Values after ≈ are worked out from the molar mass of the structure shown. Active and inactive are the calls of the source. No rule for the calls is given here.

In this experiment the test system is Vibrio cholerae motility, OD read-out. Kind of experiment: Vibrio cholerae motility inhibitors, OD read-out (AID 588778).
`COC(=O)NC12CC3CC(CC(C3)C1)C2`: the IC50 was 16.4 µg/mL (inactive) (≈ 78.4 µM).

As to `COC(=O)c1sc2cc(NC(=S)NC(C)c3ccc4c(c3)OCO4)ccc2c1Cl` (configuration not stated), the IC50 was 46.8 µg/mL (inactive) (≈ 104 µM).

For the molecule `C=CCNC(=S)Nc1ccc(Cl)c(Cl)c1`, the IC50 is 26.4 µg/mL (inactive) (≈ 101 µM).

In the case of `Cc1ccc(C)c(Nc2nc(NCCO)c3ccccc3n2)c1`, the IC50 is 6.87 µg/mL (≈ 22.3 µM).

On to `Cc1ccc(OCCn2ccnc2)c(Cl)c1`, for which the IC50 was 25.9 µg/mL (inactive) (≈ 109 µM).

For the molecule `FC(F)(F)c1ccccc1-n1c(-c2cccnc2)n[nH]c1=S`, the IC50 was 6.15 µg/mL (inactive) (≈ 19.1 µM).

Regarding `CC(=O)NC(=S)NNC(=O)c1ccc(-c2ccccc2)cc1`, the IC50 was 1.96 µg/mL (inactive) (≈ 6.25 µM).

`O=[N+]([O-])c1nn(Cc2ccc(F)cc2)cc1Br`: the IC50 is 4.1 µg/mL (≈ 13.7 µM).

As to `Nc1nc(-c2ccccc2)cc(N2CCCCC2)n1`, the IC50 is 14.3 µg/mL (inactive) (≈ 56.2 µM).

`O=C(Oc1ccc(Cl)c2cccnc12)c1cccs1`: the IC50 is 12.8 µg/mL (inactive) (≈ 44.2 µM).

As for `O=C(N/C(=C/c1cccs1)c1nc2ccccc2[nH]1)c1cccs1`, the IC50 was 16.8 µg/mL (inactive) (≈ 47.8 µM).

With `Nc1nc(NC(=O)c2ccco2)nn1-c1ccccc1`, the IC50 was 11.3 µg/mL (≈ 42 µM).

As to `CC(NC(=O)c1ccc([N+](=O)[O-])o1)C12CC3CC(CC(C3)C1)C2` (configuration not stated), the IC50 is 3.3 µg/mL (inactive) (≈ 10.4 µM).

Turning to `O=C1CC(Sc2ccccc2C(=O)O)C(=O)N1` (configuration not stated), the IC50 was 8.99 µg/mL (inactive) (≈ 35.8 µM).

Consider `NC(=O)NNc1c2ccccc2nc2ccccc12`, for which the IC50 was 13 µg/mL (inactive) (≈ 51.5 µM).

With `CC[n+]1c(/C=C/c2ccc(-c3ccc([N+](=O)[O-])cc3)o2)ccc2ccccc21`, the IC50 is 15.3 µg/mL (inactive).

Regarding `O=[N+]([O-])c1nn(Cc2c(F)cccc2Cl)cc1Cl`, the IC50 is 1.4 µg/mL (≈ 4.83 µM).

Source of the values: PubChem BioAssay AID588778 (Southern Research Institute, 2011).
